Target: T1, gamma-secretase (Homo sapiens, UniProt P49768, M146L)
T1 construct: expressed in transfected cells; host or cells: CHO-K1 clone 30-12, co-expressing CT100 of APP and PS1 M146L
Test: β-amyloid cellular test: inhibition of production of β-amyloid (β-A4) peptide, ELISA of cell supernatants
Format: cell-based
Conditions: line CHO-K1 co-expressing the CT100 of APP and PS1 M146L clone 30-12; incubated 24-25 hours; secreted amyloid peptide by ELISA; read-out: EC50 (50% effective concentration), inhibition of production of the β-amyloid (β-A4) peptide
Excerpt: For the β-amyloid cellular test, the line CHO-K1 co-expressing the CT100 of APP and PS1 M146L clone 30-12 is used. The line targets the inhibition of gamma-secretase. […]
The amount of bound peptide is detected indirectly in the presence of a competitor corresponding to the truncated peptide, the biotin-coupled peptide 1-28, which is then detected with alkaline phosphatase-coupled streptavidin. The substrate, p-nitrophenyl phosphate (pNPP FAST p-Nitrophenyl Phosphate, Sigma N2770) gives a yellow soluble reaction product that can be read at 405 nm. […] After incubation for 30 minutes at room temperature, the reaction is quenched by adding 100 μl per well of 0.1M EDTA and the reading is taken at 405 nm.

EC50: 6 nM
SMILES: CCC[C@H](NC(=O)Cc1cc(F)cc(F)c1)C(=O)Nc1nc(C(=O)OC)c(-c2ccccc2Oc2ccc(F)cc2)s1 [Compound 13, Methyl 2-{2-(S)-[2-(3,5-difluorophenyl)acetylamino]-pentanoyl}amino-5-[2-(4-fluorophenoxy)phenyl]thiazole-4-carboxylate]
